Where two headings read alike, the source gives them in different places. Numbered stars: 1 amine (or outer) side, 2 acyl side, 3 side chain; on linkers, the order of the positions; unused ones are H or OH. Square brackets hold non-standard residues; d marks the D form. Peptide text beside a SMILES is read from it. * marks the point of attachment. Propanoyl(3-indol-3-yl) = O=C(CCc1c[nH]c2ccccc12)*; Indole2carbonyl(5-F) = O=C(c1cc2cc(F)ccc2[nH]1)*; Propanoyl(3-(4-F-phenyl)) = O=C(CCc1ccc(F)cc1)*; Hydrocinnamoyl(2,4-F2) = O=C(CCc1ccc(F)cc1F)*; Phe(4-Cl) = N[C@@H](Cc1ccc(Cl)cc1)C(=O)O; 1Nal = N[C@@H](Cc1cccc2ccccc12)C(=O)O; d1Nal = N[C@H](Cc1cccc2ccccc12)C(=O)O; d2Nal = N[C@H](Cc1ccc2ccccc2c1)C(=O)O; Acetyl(3-pyridyl) = O=C(Cc1cccnc1)*; Lys(iPr) = CC(C)NCCCC[C@H](N)C(=O)O; NMeY = CN[C@@H](Cc1ccc(O)cc1)C(=O)O; Piperazinyl(4-Me) = CN1CCN(*)CC1; d3Pal = N[C@H](Cc1cccnc1)C(=O)O; dCha = N[C@H](CC1CCCCC1)C(=O)O; Nicotinoyl = O=C(c1cccnc1)*; X5 = C1CCC(N(C2CCCCC2)*)CC1; X9 = O=C(CCc1ccc(Br)cc1)*; Morpholide = C1CN(*)CCO1; X15 = O=C(Cc1ccc(O)cc1)*; X2 = O=C(C=Cc1ccccc1)*; CO = O=C([*:1])[*:2]
Biological target: T1, LHRH receptors (Rattus norvegicus, UniProt P30969)
T1 construct: Pituitary membranes containing LHRH receptors are prepared in batches from quick-frozen rat pituitaries; tissue Hilltop Labs; host or cells: rat pituitary membranes
T1 sequence (P30969 1-327): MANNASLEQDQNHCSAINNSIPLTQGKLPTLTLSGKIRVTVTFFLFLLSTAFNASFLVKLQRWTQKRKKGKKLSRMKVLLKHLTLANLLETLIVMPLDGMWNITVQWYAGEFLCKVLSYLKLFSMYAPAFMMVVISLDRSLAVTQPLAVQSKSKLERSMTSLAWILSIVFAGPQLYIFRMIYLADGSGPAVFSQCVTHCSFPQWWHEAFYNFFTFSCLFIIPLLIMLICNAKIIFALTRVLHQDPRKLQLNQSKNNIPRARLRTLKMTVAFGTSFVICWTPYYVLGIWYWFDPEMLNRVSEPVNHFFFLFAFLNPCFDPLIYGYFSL
Assay: Receptor Binding (radioligand receptor binding assay)
Details: rat pituitary membranes, 2 hours at 4° C.

[1] = table 3, radioiodinated [D-Leu^6 -des Gly^10 ]-LHRH ethyl amide 50 pM, read-out: Receptor Binding pkI (converted)
[2] = table 4, radioligand 50 pM, read-out: Receptor Binding pkI (converted)

| Ki [1] [nM] | Ki [2] [nM] | Compound | further results |
| --- | --- | --- | --- |
|  | 0.02 | CCNC(=O)[C@@H]1CCCN1C(=O)[C@H](CCCN=C(N)N)NC(=O)[C@H](CC(C)C)NC(=O)[C@@H](Cc1c[nH]c2ccccc12)NC(=O)[C@H](Cc1ccc(O)cc1)NC(=O)[C@H](CO)NC(=O)[C@H]1CCCN1C(=O)CCc1ccc(F)cc1 [Compound 147, (3-9)[N-(3-(4-Fluorophenyl)propionyl) -D-Pro^3 -D-Trp^6 -Pro^9 NHEt]LHRH] ({Propanoyl(3-(4-F-phenyl))}-[dP]SY[dW]LRP-NHEt) |  |
|  | 0.11 | CCNC(=O)[C@@H]1CCCN1C(=O)[C@H](CCCNC(=N)N)NC(=O)[C@H](CC(C)C)NC(=O)[C@@H](Cc1c[nH]c2ccccc12)NC(=O)[C@H](Cc1ccc(O)cc1)N(C)C(=O)[C@H](CO)NC(=O)[C@H](Cc1cccc2ccccc12)NC(=O)CCc1ccc(Br)cc1 [Compound 160, (3-9)[N-(3-(4-Bromophenyl)propionyl) -1-Nal^3 -NMeTyr^5 -DTrp^6 -Pro^9 NHEt]LHRH] (X9-[1Nal]S[NMeY][dW]LRP-NHEt) |  |
|  | 0.0214 | CCNC(=O)[C@@H]1CCCN1C(=O)[C@H](CCCN=C(N)N)NC(=O)[C@H](CC(C)C)NC(=O)[C@@H](CCCCNC(=O)c1cccnc1)NC(=O)[C@H](Cc1ccc(O)cc1)N(C)C(=O)[C@H](CO)NC(=O)[C@@H](Cc1c[nH]c2ccccc12)NC(=O)CCc1ccc(F)cc1F [Compound 152, (3-9)[N-(3-(2,4-diFluorophenyl)propionyl) -D-Trp^3 -NMeTyr^5 -D-Lys^6 (N-epsilon-nicotinyl)-Pro^9 NHEt]LHRH] ({Hydrocinnamoyl(2,4-F2)}-[dW]S[NMeY][dK](Nicotinoyl)LRP-NHEt) |  |
| 1.86 |  | CCNC(=O)[C@@H]1CCCN1C(=O)[C@H](CCCNC(=N)N)NC(=O)[C@H](CC(C)C)NC(=O)[C@@H](CCCCNC(=O)c1cccnc1)NC(=O)[C@H](Cc1ccc(O)cc1)NC(=O)[C@H](CO)NC(=O)[C@H](Cc1c[nH]c2ccccc12)NC(=O)[C@H](Cc1ccccc1)NC(=O)N1CCOCC1 [Compound 117, N-(N-alpha-Morpholinocarbonyl)-Phe-Trp-Ser-Tyr-D-Lys(Nic) -Leu-Arg-ProNHEt] ({Morpholide-CO}-FWSY[dK](Nicotinoyl)LRP-NHEt) |  |
|  | 0.0537 | CC(C)C[C@H](NC(=O)[C@@H](Cc1c[nH]c2ccccc12)NC(=O)[C@H](Cc1ccc(O)cc1)N(C)C(=O)[C@H](CO)NC(=O)[C@@H](Cc1c[nH]c2ccccc12)NC(=O)CCc1ccc(F)cc1)C(=O)N[C@@H](CCCNC(=N)N)C(=O)N1CCC[C@H]1C(=O)N[C@H](C)C(N)=O [Compound 164, (3-10)[N-(3-(4-Fluorophenyl)propionyl)-D-Trp^3,6 -NMeTyr^5 -D-Ala^10]LHRH] ({Propanoyl(3-(4-F-phenyl))}-[dW]S[NMeY][dW]LRP[dA]-NH2) |  |
|  | 0.0204 | CC(C)C[C@H](NC(=O)[C@@H](CCCCN)NC(=O)[C@H](Cc1ccc(O)cc1)N(C)C(=O)[C@H](CO)NC(=O)[C@@H](Cc1cccnc1)NC(=O)CCc1ccc(F)cc1)C(=O)N[C@@H](CCCNC(=N)N)C(=O)N1CCC[C@H]1C(=O)N[C@H](C)C(N)=O [Compound 170, (3-10)[N-(3-(4-Fluorophenyl)propionyl)-D-3-Pal^3 -NMeTyr^5 -D-Lys^6 -D-Ala^10]LHRH] ({Propanoyl(3-(4-F-phenyl))}-[d3Pal]S[NMeY][dK]LRP[dA]-NH2) |  |
| 0.0316 |  | CCNC(=O)[C@@H]1CCCN1C(=O)[C@H](CCCN=C(N)N)NC(=O)[C@H](CC(C)C)NC(=O)[C@@H](Cc1ccc(O)cc1)NC(=O)[C@H](Cc1ccc(O)cc1)NC(=O)[C@H](CO)NC(=O)[C@H](Cc1c[nH]c2ccccc12)NC(=O)CCc1ccc(F)cc1 [Compound 92, (3-9)[N-(3-(4-Fluorophenyl)propionyl) -Trp^3 -D-Tyr^6 -Pro^9 NHEt]LHRH] ({Propanoyl(3-(4-F-phenyl))}-WSY[dY]LRP-NHEt) |  |
|  | 0.0132 | CC(C)C[C@H](NC(=O)[C@@H](CCCCNC(=O)c1cccnc1)NC(=O)[C@H](Cc1ccc(O)cc1)N(C)C(=O)[C@H](CO)NC(=O)[C@@H](Cc1cccc2ccccc12)NC(=O)CCc1ccc(F)cc1)C(=O)N[C@@H](CCCNC(=N)N)C(=O)N1CCC[C@H]1C(=O)N[C@H](C)C(N)=O [Compound 174, (3-10)[N-(3-(4-Fluorophenyl)propionyl)-D-1-Nal^3 -NMeTyr^5 -D-Lys^6 (N-epsilon-nicotinyl)-D-Ala^10]LHRH] ({Propanoyl(3-(4-F-phenyl))}-[d1Nal]S[NMeY][dK](Nicotinoyl)LRP[dA]-NH2) |  |

More lines, now with the values behind:

| Compound | Ki [1] [nM] | Ki [2] [nM] | further results |
| --- | --- | --- | --- |
| CC(C)C[C@H](NC(=O)[C@@H](Cc1ccc2ccccc2c1)NC(=O)[C@H](Cc1ccc(O)cc1)NC(=O)[C@H](CO)NC(=O)CCc1c[nH]c2ccccc12)C(=O)N[C@@H](CCCNC(=N)N)C(=O)N1CCC[C@H]1C(=O)N[C@H](C)C(N)=O [Compound 56, N-(3-(3-Indole)propionyl)-Ser-Tyr-D-2-Nal-Leu-Arg-Pro-D-AlaNH2] ({Propanoyl(3-indol-3-yl)}-SY[d2Nal]LRP[dA]-NH2) | 0.646 |  |  |
| CCNC(=O)[C@@H]1CCCN1C(=O)[C@H](CCCNC(=N)N)NC(=O)[C@H](CC(C)C)NC(=O)[C@@H](CC(C)C)NC(=O)[C@H](Cc1ccc(O)cc1)NC(=O)[C@H](CO)NC(=O)Cc1cccnc1 [Compound 40, (4-9)[N-(3-Pyridylacetyl)-Ser4-D-Leu^6 -Pro^9 -NHEt] LHRH] ({Acetyl(3-pyridyl)}-SY[dL]LRP-NHEt) | 4370 |  |  |
| CCNC(=O)[C@@H]1CCCN1C(=O)[C@H](CCCNC(=N)N)NC(=O)[C@H](CC(C)C)NC(=O)[C@@H](Cc1c[nH]c2ccccc12)NC(=O)[C@H](Cc1ccc(O)cc1)NC(=O)[C@H](CO)NC(=O)Cc1ccc(O)cc1 [Compound 73, (4-9)[N-(3-(4-Hydroxyphenyl)acetyl) -Ser^4 -D-Trp^6 -Pro^9 NHEt]LHRH] (X15-SY[dW]LRP-NHEt) | 70.8 |  |  |
| CCNC(=O)[C@@H]1CCCN1C(=O)[C@H](CCCNC(=N)N)NC(=O)[C@H](CC(C)C)NC(=O)[C@@H](Cc1c[nH]c2ccccc12)NC(=O)[C@H](Cc1ccc(O)cc1)NC(=O)[C@H](CO)NC(=O)[C@H](Cc1c[nH]c2ccccc12)NC(=O)C=Cc1ccccc1 [Compound 62, (3-9)[N-Cinnamoyl-Trp^3 -D-Trp^6 -Pro^9 -NHEt]LHRH] (X2-WSY[dW]LRP-NHEt) | 10.5 |  |  |
| CCNC(=O)[C@@H]1CCCN1C(=O)[C@H](CCCNC(=N)N)NC(=O)[C@H](CC(C)C)NC(=O)[C@@H](Cc1c[nH]c2ccccc12)NC(=O)[C@H](Cc1ccc(O)cc1)NC(=O)[C@H](CO)NC(=O)[C@H](Cc1c[nH]c2ccccc12)NC(=O)[C@H](Cc1ccccc1)NC(=O)N(C1CCCCC1)C1CCCCC1 [Compound 126, (2-9)[N-(N-alpha-Dicyclohexylaminocarbonyl)-Phe^2 -D-Trp^6 -Pro^9 NHEt]LHRH] ({X5-CO}-FWSY[dW]LRP-NHEt) |  |  | Ki (Receptor Binding pkI, table 3, radioiodinated [D-Leu^6 -des Gly^10 ]-LHRH ethyl amide 50 pM): 37.2 nM |
| CCNC(=O)[C@@H]1CCCN1C(=O)[C@H](CCCNC(=N)N)NC(=O)[C@H](CC(C)C)NC(=O)[C@@H](Cc1c[nH]c2ccccc12)NC(=O)[C@H](Cc1ccc(O)cc1)NC(=O)[C@H](CO)NC(=O)[C@H](Cc1c[nH]c2ccccc12)NC(=O)C(CC(=O)N1CCOCC1)Cc1cccc2ccccc12 (single isomer, unassigned) [Compound 131] | 0.631 |  |  |
| CC(C)C[C@H](NC(=O)[C@@H](CCCCNC(=O)c1cccnc1)NC(=O)[C@H](Cc1ccc(O)cc1)N(C)C(=O)[C@H](CO)NC(=O)[C@@H](CC1CCCCC1)NC(=O)CCc1ccc(F)cc1)C(=O)N[C@@H](CCCCNC(C)C)C(=O)N1CCC[C@H]1C(=O)N[C@H](C)C(N)=O [Compound 254, (3-10)[N-(3-(4-Fluorophenyl)propionyl)-D-Cha^3 -NMeTyr^5 -D-Lys^6 (N-epsilon-nicotinyl)-Lys^8 (N-epsilon-isopropyl)-D-Ala^10]LHRH] ({Propanoyl(3-(4-F-phenyl))}-[dCha]S[NMeY][dK](Nicotinoyl)L[Lys(iPr)]P[dA]-NH2) |  | 0.012 |  |
| CCNC(=O)[C@@H]1CCCN1C(=O)[C@H](CCCNC(=N)N)NC(=O)[C@H](CC(C)C)NC(=O)[C@@H](Cc1c[nH]c2ccccc12)NC(=O)[C@H](Cc1ccc(O)cc1)NC(=O)[C@H](CO)NC(=O)[C@H](Cc1c[nH]c2ccccc12)NC(=O)[C@H](Cc1ccc(Cl)cc1)NC(=O)N1CCOCC1 [Compound 112, (2-9)[N-(N-alpha-Morpholinocarbonyl)-4-Cl -Phe^2 -D-Trp^6 -Pro^9 NHEt]LHRH] ({Morpholide-CO}-[Phe(4-Cl)]WSY[dW]LRP-NHEt) | 0.316 |  |  |
| CCNC(=O)[C@@H]1CCCN1C(=O)[C@H](CCCNC(=N)N)NC(=O)[C@H](CC(C)C)NC(=O)[C@@H](Cc1c[nH]c2ccccc12)NC(=O)[C@H](Cc1ccc(O)cc1)NC(=O)[C@H](CO)NC(=O)[C@@H](Cc1c[nH]c2ccccc12)NC(=O)c1cc2cc(F)ccc2[nH]1 [Compound 102, (3-9)[N-(5-Fluoro-2-indolecarbonyl)-D -Trp^3,6 -Pro^9 -NHEt]LHRH] ({Indole2carbonyl(5-F)}-[dW]SY[dW]LRP-NHEt) | 17.4 |  |  |
| CCNC(=O)[C@@H]1CCCN1C(=O)[C@H](CCCNC(=N)N)NC(=O)[C@H](CC(C)C)NC(=O)[C@@H](Cc1c[nH]c2ccccc12)NC(=O)[C@H](Cc1ccc(O)cc1)NC(=O)[C@H](CO)NC(=O)[C@H](Cc1c[nH]c2ccccc12)NC(=O)[C@H](Cc1ccccc1)NC(=O)N1CCN(C)CC1 [Compound 128, (2-9)[N-(N-alpha-N-methylpiperazinocarbonyl)-Phe^2 -D-Trp^6 -Pro^9 NHEt]LHRH] ({Piperazinyl(4-Me)-CO}-FWSY[dW]LRP-NHEt) | 0.447 |  |  |
| CCNC(=O)[C@@H]1CCCN1C(=O)[C@H](CCCNC(=N)N)NC(=O)[C@H](CC(C)C)NC(=O)[C@@H](Cc1c[nH]c2ccccc12)NC(=O)[C@H](Cc1ccc(O)cc1)NC(=O)[C@H](CO)NC(=O)C=Cc1ccccc1 [Compound 15, (4-9)[N-(cinnamoyl)-Ser^4 -D-Trp^6 -Pro^9 -NHEt] LHRH] (X2-SY[dW]LRP-NHEt) | 7.76 |  |  |
